Assay results: ChEMBL document CHEMBL1772985, “N-(3-fluoro-4-(4-(2-methoxy or 2,3-dichlorophenyl)piperazine-1-yl)butyl)arylcarboxamides as selective dopamine D3 receptor ligands: critical role of the carboxamide linker for D3 receptor selectivity” (J Med Chem, 2011)

Tests used:
D(3) dopamine receptor [1] = molecular target: T1, D(3) dopamine receptor (Homo sapiens, UniProt P35462); assay: Antagonist activity at human dopamine D3 receptor expressed in CHO-K1 cells assessed as inhibition of dopamine-induced recruitment of beta-arrestin-2 at 10 uM after 90 mins by beta-galactosidase assay; format: functional, cell-based
T1 sequence (P35462 whole entry): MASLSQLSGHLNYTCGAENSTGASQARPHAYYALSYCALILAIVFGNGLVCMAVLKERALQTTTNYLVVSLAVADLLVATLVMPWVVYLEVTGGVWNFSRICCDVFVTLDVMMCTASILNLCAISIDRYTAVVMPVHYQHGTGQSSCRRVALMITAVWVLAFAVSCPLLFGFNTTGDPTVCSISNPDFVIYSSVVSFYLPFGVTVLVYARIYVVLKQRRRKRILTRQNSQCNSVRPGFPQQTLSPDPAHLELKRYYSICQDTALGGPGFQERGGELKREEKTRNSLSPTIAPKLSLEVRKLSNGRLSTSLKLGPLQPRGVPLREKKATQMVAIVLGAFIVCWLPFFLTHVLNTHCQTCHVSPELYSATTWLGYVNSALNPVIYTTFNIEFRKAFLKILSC

D(2) dopamine receptor = D(2) dopamine receptor (Homo sapiens, UniProt P14416); assay: Displacement of [125I]-IABN from human dopamine D2L receptor expressed in HEK293 cells after 60 mins by gamma counting; format: cell-based
D(2) dopamine receptor, sequence (P14416 whole entry): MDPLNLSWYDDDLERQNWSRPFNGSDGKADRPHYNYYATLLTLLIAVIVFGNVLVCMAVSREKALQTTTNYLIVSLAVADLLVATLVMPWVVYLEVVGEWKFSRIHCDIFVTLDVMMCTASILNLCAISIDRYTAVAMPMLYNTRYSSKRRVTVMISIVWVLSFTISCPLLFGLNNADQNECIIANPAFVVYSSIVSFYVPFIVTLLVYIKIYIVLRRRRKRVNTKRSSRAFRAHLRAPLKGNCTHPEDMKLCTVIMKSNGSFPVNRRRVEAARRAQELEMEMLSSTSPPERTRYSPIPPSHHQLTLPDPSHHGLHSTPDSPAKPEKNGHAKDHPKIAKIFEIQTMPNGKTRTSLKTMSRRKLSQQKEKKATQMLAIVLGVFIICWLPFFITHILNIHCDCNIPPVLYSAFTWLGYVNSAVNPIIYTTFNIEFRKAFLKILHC

D(3) dopamine receptor [2] = molecular target: T1, D(3) dopamine receptor; assay: Displacement of [125I]-IABN from human dopamine D3 receptor expressed in HEK293 cells after 60 mins by gamma counting; format: cell-based
Homo sapiens = organism: Homo sapiens; assay: Selectivity ratio Ki for human dopamine D2L receptor to Ki for human dopamine D3 receptor
[3] = molecular target: T2, 5-hydroxytryptamine receptor 1A (Homo sapiens) (UniProt P08908); assay: Displacement of [3H]8-OH-DPAT from 5HT1A receptor at 10 uM
T2 sequence (whole entry): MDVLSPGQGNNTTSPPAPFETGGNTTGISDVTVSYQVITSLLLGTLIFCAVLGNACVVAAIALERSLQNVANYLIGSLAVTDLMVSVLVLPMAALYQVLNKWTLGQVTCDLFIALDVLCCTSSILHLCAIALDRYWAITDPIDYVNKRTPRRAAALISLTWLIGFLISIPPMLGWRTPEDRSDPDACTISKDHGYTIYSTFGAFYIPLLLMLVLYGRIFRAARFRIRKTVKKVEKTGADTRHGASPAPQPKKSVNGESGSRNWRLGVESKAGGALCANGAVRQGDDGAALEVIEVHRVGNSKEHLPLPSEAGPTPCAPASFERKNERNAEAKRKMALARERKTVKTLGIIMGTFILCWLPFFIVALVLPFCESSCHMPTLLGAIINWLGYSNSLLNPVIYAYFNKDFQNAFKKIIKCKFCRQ

D(3) dopamine receptor [4] = molecular target: T1, D(3) dopamine receptor; assay: Antagonist activity at human dopamine D3 receptor expressed in CHOp cells assessed as inhibition of quinpirole-induced mitogenesis; format: functional, cell-based
[5] = molecular target: 5-hydroxytryptamine receptor 2A (Homo sapiens, UniProt P28223)
5-hydroxytryptamine receptor 2A, sequence (P28223 whole entry): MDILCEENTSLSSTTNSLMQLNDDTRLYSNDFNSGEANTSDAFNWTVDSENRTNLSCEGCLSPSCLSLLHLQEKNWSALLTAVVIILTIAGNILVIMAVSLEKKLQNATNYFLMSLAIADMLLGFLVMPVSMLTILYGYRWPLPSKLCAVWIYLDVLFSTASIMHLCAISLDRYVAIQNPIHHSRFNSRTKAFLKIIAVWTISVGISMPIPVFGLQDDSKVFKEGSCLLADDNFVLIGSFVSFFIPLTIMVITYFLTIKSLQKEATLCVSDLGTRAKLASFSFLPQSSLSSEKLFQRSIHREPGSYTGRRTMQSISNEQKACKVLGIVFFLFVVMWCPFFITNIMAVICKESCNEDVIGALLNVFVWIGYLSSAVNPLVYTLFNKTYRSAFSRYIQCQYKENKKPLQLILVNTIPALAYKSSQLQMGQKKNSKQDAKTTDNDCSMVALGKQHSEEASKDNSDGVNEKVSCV

[6] = molecular target: T3, 5-hydroxytryptamine receptor 1A (Homo sapiens, UniProt P08908); assay: Displacement of [3H]8-OH-DPAT from 5HT1A receptor
T3 sequence (P08908 whole entry): T2 sequence (whole entry)

D(3) dopamine receptor [7] = molecular target: T1, D(3) dopamine receptor; assay: Antagonist activity at human dopamine D3 receptor expressed in CHO-K1 cells assessed as inhibition of dopamine-induced recruitment of beta-arrestin-2 after 90 mins by beta-galactosidase assay; format: functional, cell-based
[8] = molecular target: T2, 5-hydroxytryptamine receptor 1A (Homo sapiens); assay: Agonist activity at 5HT1A receptor assessed as stimulation of [35S]GTPgammaS binding relative to control; format: functional; design: concentration or dose not given beside the values
[9] = molecular target: T3, 5-hydroxytryptamine receptor 1A; assay: Agonist activity at 5HT1A receptor assessed as stimulation of [35S]GTPgammaS binding; format: functional
[10] = Binding affinity to human dopamine D2/E2 loop of D3 receptor expressed in HEK293 cells; format: cell-based
[11] = Binding affinity to human dopamine D2/D3 receptor chimera C expressed in HEK293 cells; format: cell-based
[12] = Binding affinity to human dopamine D2/D3 receptor chimera B expressed in HEK293 cells; format: cell-based
D(4) dopamine receptor = molecular target: T4, D(4) dopamine receptor (Homo sapiens, UniProt P21917); assay: Displacement of [125I]-IABN from human dopamine D4 receptor expressed in HEK293 cells after 60 mins by gamma counting; format: cell-based
T4 sequence (P21917 whole entry): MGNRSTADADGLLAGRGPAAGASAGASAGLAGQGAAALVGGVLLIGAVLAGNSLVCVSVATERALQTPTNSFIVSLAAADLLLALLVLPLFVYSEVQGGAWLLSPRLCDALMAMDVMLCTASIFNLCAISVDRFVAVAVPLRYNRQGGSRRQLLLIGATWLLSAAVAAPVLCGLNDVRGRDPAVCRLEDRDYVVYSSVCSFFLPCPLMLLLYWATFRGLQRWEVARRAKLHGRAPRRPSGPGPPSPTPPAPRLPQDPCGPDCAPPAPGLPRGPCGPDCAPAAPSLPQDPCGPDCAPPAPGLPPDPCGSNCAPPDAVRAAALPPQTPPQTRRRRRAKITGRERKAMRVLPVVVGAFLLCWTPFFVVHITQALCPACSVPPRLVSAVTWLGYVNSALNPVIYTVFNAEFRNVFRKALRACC

SMILES	inhibition (D(3) dopamine receptor [1]) [%]	Ki (D(2) dopamine receptor) [nM]	Ki (D(3) dopamine receptor [2]) [nM]	Ratio Ki (Homo sapiens)	inhibition [3] [%]	IC50 (D(3) dopamine receptor [4]) [nM]	Ki [5] [nM]	Ki [6] [nM]	IC50 (D(3) dopamine receptor [7]) [nM]	Activity [8] [%]	EC50 [9] [nM]	Kd [10] [nM]	Kd [11] [nM]	Kd [12] [nM]	Ki (D(4) dopamine receptor) [nM]
COc1ccc2[nH]c(C(=O)NCCC(F)CN3CCN(c4cccc(Cl)c4Cl)CC3)cc2c1 (configuration not stated)	< 50	230	1.5	153	< 50	320	272	–	–	–	–	–	–	–	–
COc1ccc2oc(C(=O)NCCC(F)CN3CCN(c4cccc(Cl)c4Cl)CC3)cc2c1 (configuration not stated)	< 50	279	8	35	–	1430	274	501	–	–	–	–	–	–	–
COc1ccccc1N1CCN(CC(F)CCNC(=O)c2cc3ccccc3s2)CC1 (configuration not stated)	–	241	3.8	63	–	83	3030	139	3210	57	440	–	–	–	–
COc1ccccc1N1CCN(CC(F)CCNC(=O)c2ccc(-c3ccccn3)cc2)CC1 (configuration not stated)	–	390	20.5	19	–	390	2060	49	699	73	71.6	–	–	–	–
CCCN(CCCCN1CCN(c2cccc(Cl)c2Cl)CC1)Cc1ccc2c(c1)Cc1ccccc1-2	–	269	129	2	–	–	–	–	–	–	–	–	–	–	–
CCCN(CCCCN1CCN(c2cccc(Cl)c2Cl)CC1)Cc1cc2ccccc2s1	–	162	–	2	–	–	–	–	–	–	–	–	–	–	–
CN(CCC(F)CN1CCN(c2cccc(Cl)c2Cl)CC1)Cc1ccc2c(c1)Cc1ccccc1-2 (configuration not stated)	–	2060	393	5	< 50	918	2580	–	–	–	–	–	–	–	–
O=C(NCCC(F)CN1CCN(c2cccc(Cl)c2Cl)CC1)c1ccc2ccccc2c1 (configuration not stated)	< 50	195	6.1	32	< 50	255	1910	–	–	–	–	–	–	–	–
O=C(NCCC(F)CN1CCN(c2cccc(Cl)c2Cl)CC1)c1cc2ccccc2o1 (configuration not stated)	–	–	–	–	–	–	–	–	–	–	–	0.08	0.02	0.02	–
CN(CCC(O)CN1CCN(c2cccc(Cl)c2Cl)CC1)Cc1ccc2c(c1)Cc1ccccc1-2 (configuration not stated)	–	869	162	5	–	–	–	–	–	–	–	–	–	–	–
O=C(NCCC(F)CN1CCN(c2cccc(Cl)c2Cl)CC1)c1cc2ccccc2[nH]1 (configuration not stated)	–	526	4	131	–	–	212	223	1220	88	2140	–	–	–	3360
CCCN(CCCCN1CCN(c2ccccc2OC)CC1)Cc1ccc2c(c1)Cc1ccccc1-2	–	196	71.5	3	–	–	–	–	–	–	–	–	–	–	–
O=C(NC/C=C/CN1CCN(c2cccc(Cl)c2Cl)CC1)c1ccc(-c2ccccn2)cc1	–	–	–	133	–	–	–	–	–	–	–	–	–	–	–
FC(CCNCc1ccc2c(c1)Cc1ccccc1-2)CN1CCN(c2cccc(Cl)c2Cl)CC1 (configuration not stated)	–	5270	467	11	–	–	–	–	–	–	–	–	–	–	–
O=C(NCCC(F)CN1CCN(c2cccc(Cl)c2Cl)CC1)c1ccc2c(c1)Cc1ccccc1-2 (configuration not stated)	< 50	4260	2.6	1640	–	800	4800	6000	–	–	–	–	–	–	–
O=C(NCCC(F)CN1CCN(c2cccc(Cl)c2Cl)CC1)c1ccc(-c2ccccn2)cc1 (configuration not stated)	–	378	6.2	–	–	256	98	159	–	–	1080	–	–	–	3090
COc1ccc2oc(C(=O)NCCC(F)CN3CCN(c4ccccc4OC)CC3)cc2c1 (configuration not stated)	–	274	13.9	20	–	780	3000	73	1240	76	600	–	–	–	–
CCCN(CCCCN1CCN(c2ccccc2OC)CC1)Cc1ccc2ccccc2c1	–	119	80.8	1.5	–	–	–	–	–	–	–	–	–	–	–
CCCN(CCCCN1CCN(c2cccc(Cl)c2Cl)CC1)Cc1ccc2ccccc2c1	–	313	104	3	–	–	–	–	–	–	–	–	–	–	–
CCCN(CCCCN1CCN(c2ccccc2OC)CC1)Cc1cc2ccccc2s1	–	69.9	67.9	1	–	–	–	–	–	–	–	–	–	–	–
O=C(NCCC(F)CN1CCN(c2cccc(Cl)c2Cl)CC1)c1cc2ccccc2s1 (configuration not stated)	–	472	2.9	163	–	17	3290	2140	3770	–	–	–	–	–	–
COc1ccccc1N1CCN(CC(F)CCNC(=O)c2ccc3c(c2)Cc2ccccc2-3)CC1 (configuration not stated)	< 50	2890	10.1	286	–	214	> 10000	299	–	–	–	–	–	–	3180
COc1ccccc1N1CCN(CC(F)CCNC(=O)c2cc3ccccc3o2)CC1 (configuration not stated)	–	329	28.6	11	–	440	4800	37.9	–	60	134	–	–	–	–
COc1ccc2[nH]c(C(=O)NCCC(F)CN3CCN(c4ccccc4OC)CC3)cc2c1 (configuration not stated)	–	302	4.6	66	–	1140	3540	1170	2990	–	–	–	–	–	–
COc1ccccc1N1CCN(CC(F)CCNC(=O)c2cc3ccccc3[nH]2)CC1 (configuration not stated)	< 50	421	9.5	44	–	820	3240	101	–	83	1430	–	–	–	1490
OC(CCNCc1ccc2c(c1)Cc1ccccc1-2)CN1CCN(c2cccc(Cl)c2Cl)CC1 (configuration not stated)	–	2090	134	16	–	–	–	–	–	–	–	–	–	–	–
